Measured values from US20200045972A1, “NOVEL 5-SUBSTITUTED IMIDAZOLYLMETHYL DERIVATIVES” (Bayer CropScience Aktiengesellschaft, priority 2016, published 2020).

Test: Measurement of LogP values by HPLC on reversed phase columns (EEC directive 79/831 Annex V.A8)
Format: physicochemical
Conditions: method [a]: LC-UV, acidic range, 0.1% formic acid in water and acetonitrile as eluent (linear gradient from 10% to 95% acetonitrile); for chromatographic logP: reversed phase HPLC column
Description: Measurement of LogP values was performed according to EEC directive 79/831 Annex V.A8 by HPLC (High Performance Liquid Chromatography) on reversed phase columns with the following methods: • ^[a] LogP value is determined by measurement of LC-UV, in an acidic range, with 0.1% formic acid in water and acetonitrile as eluent (linear gradient from 10% acetonitrile to 95% acetonitrile). • ^[b] LogP value is determined by measurement of LC-UV, in a neutral range, with 0.001 molar ammonium acetate solution in water and acetonitrile as eluent (linear gradient from 10% acetonitrile to 95% acetonitrile). • ^[c] LogP value is determined by measurement of LC-UV, in an acidic range, with 0.1% phosphoric acid and acetonitrile as eluent (linear gradient from 10% acetonitrile to 95% acetonitrile). If more than one LogP value is available within the same method, all the values are given and separated by “+”. Calibration was done with straight-chain alkan2-ones (with 3 to 16 carbon atoms) with known LogP values (measurement of LogP values using retention times with linear interpolation between successive alkanones). Lambda-max-values were determined using UV-spectra from 200 nm to 400 nm and the peak values of the chromatographic signals.

| chromatographic logP | LogP | SMILES |
| --- | --- | --- |
| 2.54 |  | N#Cc1cncn1CC(O)(Cc1cc(-c2ccccc2)no1)C1(Cl)CC1 (stereo not drawn) [Example I-03, 1-[2-(1-chlorocyclopropyl)-2-hydroxy-3-(3-phenyl-1,2-oxazol-5-yl)propyl]-1H-imidazole-5-carbonitrile] |
| 2.71 |  | N#Cc1cncn1CC(O)(CC1CC(c2ccccc2)=NO1)C1(Cl)CC1 (racemic) [Example I-05, 1-[2-(1-chlorocyclopropyl)-2-hydroxy-3-(3-phenyl-4,5-dihydro-1,2-oxazol-5-yl)propyl]-1H-imidazole-5-carbonitrile] |
|  | 2.59 ^[a] | N#Cc1cncn1CC(O)(CC1CC(c2ccccc2)=NO1)C1(Cl)CC1 (racemic) [Example I-06, 1-[2-(1-chlorocyclopropyl)-2-hydroxy-3-(3-phenyl-4,5-dihydro-1,2-oxazol-5-yl)propyl]-1H-imidazole-5-carbonitrile] |
